Where two headings read alike, the source gives them in different places.
Tests used:
human platelets [1] = settings: PAR4AP 50 μM, 250 μM peptide (150 μM also in FIG. 17G)
Experimental: Washed human or mouse platelets resuspended in modified Tyrode's buffer (3×10^8/ml, 50 μl) were incubated with 10 μg/ml Oregon Green^488-conjugated fibrinogen (Molecular Probes) and 50 μM PAR4AP for 30 minutes at 22° C. as previously described^26. The reaction was diluted with 0.5 ml of PBS and analyzed by flow cytometry using FACS Caliber (BD Biosciences, San Jose, Calif.).

human platelets [2] = tested on: human platelets
Experimental: (§1) Platelet aggregation assays were carried out as follows: Platelet aggregation and secretion was measured in a turbidometric platelet aggregometer (Chronolog) at 37° C. with stirring (1000 rpm). Washed platelets (3×10^8/ml) in modified Tyrode's buffer were stimulated with thrombin (Enzyme Research Laboratories). For talin knockdown platelet aggregation assay stimulated with manganese and ADP, manganese and ADP was mixed prior to experiment to achieve final concentration of 1 mM manganese and 5 μM ADP in reaction tube. Aggregation traces shown are representative of at least three independent experiments.
Platelet aggregation assays were performed with myristoylated peptide mP5, myristoylated peptide of SEQ: ID NO: 87, or their respective scarmbled control peptides, as essentially described herein. Briefly, washed human platelets were preincubated with 25, 50, 100, 250, or 500 μM peptide solubilized in DMSO.

mouse platelets = settings: 30 μM peptide
Experimental: as §1

platelets = settings: ATP secretion
Experimental: as §1

Myr-EEERA [mP5]
agonist (PAR4AP)-induced fibrinogen binding to platelets (inside-out signaling) (human platelets [1]): no effect
agonist (PAR4AP)-induced fibrinogen binding to platelets (inside-out signaling) (human platelets [1]; listed as Myr-P5): without affecting
platelet aggregation induced by thrombin (human platelets [2]): inhibited
second wave of platelet aggregation (human platelets [2]): inhibited
platelets aggregation induced by thrombin (human platelets [2]; 30 μM peptide, human platelets): inhibited
platelets aggregation induced by thrombin (human platelets [2]; 200 μM peptide): inhibited
platelets aggregation induced by thrombin (mouse platelets): inhibited
platelet granule secretion (platelets): inhibited
